Laboratory results from PMC2248166, “Quantitative peptide binding motifs for 19 human and mouse MHC class I molecules derived using positional scanning combinatorial peptide libraries” (Immunome Research, 2008).

Key:
Format in all cases: binding
HLA A*3001 = HLA A*3001 (Homo sapiens, UniProt P04439, D140H/D185E/E176W/F33S/G80R/H175R/K168Q/R138E/R41S); assay: biochemical
H-2 D^b = H-2 D^b (Mus musculus, UniProt P01899)
HLA B*1501 = HLA B*1501 (Homo sapiens, UniProt P01889, A329T/A93T/A95T/C349S/D201E/D98Y/E187L/E204Q/E69M/E70A/K202T/N87E/Q94N/R155S/R180W/S121R/S35A/S48A/V306I/V36M/Y140S/Y91S); assay: biochemical
HLA A*6802 = HLA A*6802 (Homo sapiens, UniProt P04439, A269V/D140Y/D185E/E176V/E277Q/E87N/F33Y/G231S/I121R/I166T/I218V/L180W/L300P/L318F/N151K/P208A/P217A/Q86R/R138H/R169H/S129P/T345S/V36M)
HLA B*5801 = HLA B*5801 (Homo sapiens, UniProt P01889, A329T/C349S/D201E/D98Y/E176V/E187L/E204Q/E69T/G107R/I218V/I90N/K202T/L105A/L119I/N104I/N87E/Q89R/Q94S/R106L/R155S/R180L/R86G/S101N/S121R/S35A/S48A/T118I/V127L/V306I/V36M/Y140S/Y91M)
HLA B*5802 = HLA B*5802 (Homo sapiens, UniProt P01889, A329T/C349S/D201E/D98Y/E176V/E187L/E204Q/E69T/G107R/I218V/I90N/K202T/L105A/N104I/N87E/Q89R/Q94S/R106L/R155S/R180L/R86G/S101N/S121W/S35A/S48A/V127L/V306I/V36M/Y140S/Y91M)
HLA A*3201 = HLA A*3201 (Homo sapiens, UniProt P04439, A270S/D101S/D185E/E176V/E277Q/F133L/G103R/G107R/G231S/H175R/I121M/I218V/I322F/K168Q/L105A/L300P/L318F/M331R/P208A/P217A/Q94H/R106L/R138Q/S129P/T104I/T323A/T345S/V100E/V321M/V358M); assay: biochemical
HLA B*5401 = HLA B*5401 (Homo sapiens, UniProt P01889, A329T/C349S/D138N/D201E/E176V/E187T/E204Q/E69G/I76V/K202T/L119W/R155S/R180L/S121T/S35A/S48A/V127L/V306I/V36M/Y140L)
HLA B*5101 = HLA B*5101 (Homo sapiens, UniProt P01889, A329T/A93T/A95T/C349S/D138N/D201E/D98Y/E187L/E204Q/E69T/G107R/I218V/K202T/L105A/L119W/N104I/Q94N/R106L/R155S/R180L/S101N/S121T/S35A/S48A/V306I/V36M/Y195H/Y91F)
H-2 D^d = H-2 D^d (Mus musculus, UniProt P01900)
HLA B*3501 = HLA B*3501 (Homo sapiens, UniProt P01889, A329T/A93T/A95T/C349S/D201E/D98Y/E176V/E187L/E204Q/E69T/I218V/K202T/L119I/Q94N/R155S/R180L/S121R/S35A/S48A/T118I/V127L/V306I/V36M/Y140S/Y91F)
HLA B*1503 = HLA B*1503 (Homo sapiens, UniProt P01889, A329T/A93T/A95T/C349S/D201E/D98Y/E187L/E204Q/K202T/N87E/Q94N/R155S/R180L/S121R/S35A/V306I/V36M/Y140S/Y91S); assay: biochemical
HLA B*0801 = HLA B*0801 (Homo sapiens, UniProt P01889, A93T/A95T/D138N/E176V/E187T/K202T/Q94N/R180D/S35A/V36M/Y33D/Y91F); assay: biochemical
HLA B*5301 = HLA B*5301 (Homo sapiens, UniProt P01889, A329T/A93T/A95T/C349S/D201E/D98Y/E176V/E187L/E204Q/E69T/G107R/I218V/K202T/L105A/L119I/N104I/Q94N/R106L/R155S/R180L/S101N/S121R/S35A/S48A/T118I/V127L/V306I/V36M/Y140S/Y91F)
H-2 K^k = H-2 K^k (Mus musculus, UniProt P04223)
H-2 K^d = H-2 K^d (Mus musculus, UniProt P01902)
H-2 K^d, sequence (P01887 21-119): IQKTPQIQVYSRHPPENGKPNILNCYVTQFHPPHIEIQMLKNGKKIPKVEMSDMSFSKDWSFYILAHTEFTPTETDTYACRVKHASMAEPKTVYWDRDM
H-2 K^d, sequence (P01902 22-368): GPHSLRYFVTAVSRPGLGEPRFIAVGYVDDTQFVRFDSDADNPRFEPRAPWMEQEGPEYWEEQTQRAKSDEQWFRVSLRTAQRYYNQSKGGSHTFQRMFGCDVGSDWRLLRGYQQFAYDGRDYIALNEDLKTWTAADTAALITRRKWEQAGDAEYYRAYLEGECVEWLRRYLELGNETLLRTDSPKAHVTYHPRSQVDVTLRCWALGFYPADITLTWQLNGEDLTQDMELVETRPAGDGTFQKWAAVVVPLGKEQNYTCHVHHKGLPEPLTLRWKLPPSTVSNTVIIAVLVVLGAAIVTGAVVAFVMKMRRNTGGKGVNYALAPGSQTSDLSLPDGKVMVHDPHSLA

H-2 D^b, sequence (P01887 21-119): as the sequence (P01887 21-119) above
H-2 D^b, sequence (P01899 25-362): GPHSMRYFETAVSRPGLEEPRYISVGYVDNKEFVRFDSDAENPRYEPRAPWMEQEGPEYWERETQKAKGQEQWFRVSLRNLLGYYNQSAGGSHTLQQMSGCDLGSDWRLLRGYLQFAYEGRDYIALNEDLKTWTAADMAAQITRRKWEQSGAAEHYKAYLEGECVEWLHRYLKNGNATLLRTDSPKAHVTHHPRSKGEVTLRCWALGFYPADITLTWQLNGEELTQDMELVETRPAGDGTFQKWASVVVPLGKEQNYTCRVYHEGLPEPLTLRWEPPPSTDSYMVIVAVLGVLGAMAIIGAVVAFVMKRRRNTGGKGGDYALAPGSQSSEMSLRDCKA
H-2 K^k, sequence (P01887 21-119): as the sequence (P01887 21-119) above
H-2 K^k, sequence (P04223 22-369): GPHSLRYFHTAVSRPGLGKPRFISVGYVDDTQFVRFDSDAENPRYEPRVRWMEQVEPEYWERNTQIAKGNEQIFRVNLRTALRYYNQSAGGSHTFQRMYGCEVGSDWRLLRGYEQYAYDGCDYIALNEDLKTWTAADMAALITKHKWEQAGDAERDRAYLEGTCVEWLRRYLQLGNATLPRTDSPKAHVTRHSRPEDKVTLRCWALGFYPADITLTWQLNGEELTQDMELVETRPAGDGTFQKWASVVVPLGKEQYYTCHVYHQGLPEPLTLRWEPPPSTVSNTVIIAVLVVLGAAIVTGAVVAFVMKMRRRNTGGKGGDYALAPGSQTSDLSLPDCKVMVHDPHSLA
H-2 D^d, sequence (P01900 whole entry, looked up): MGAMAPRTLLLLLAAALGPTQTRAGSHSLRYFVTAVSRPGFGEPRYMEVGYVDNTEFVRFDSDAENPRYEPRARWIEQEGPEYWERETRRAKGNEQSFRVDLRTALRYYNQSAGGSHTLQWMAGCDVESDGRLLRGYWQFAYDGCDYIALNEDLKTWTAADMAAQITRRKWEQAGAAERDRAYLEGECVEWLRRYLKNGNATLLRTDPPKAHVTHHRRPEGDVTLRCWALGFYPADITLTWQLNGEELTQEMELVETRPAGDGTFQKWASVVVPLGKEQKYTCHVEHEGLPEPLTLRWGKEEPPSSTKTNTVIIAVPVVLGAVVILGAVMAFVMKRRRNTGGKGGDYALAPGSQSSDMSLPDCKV

Sequence	Normalized average relative binding affinity(ARB) (HLA A*3001)	Normalized average relative binding affinity(ARB) (H-2 D^b)	Normalized average relative binding affinity(ARB) (HLA B*1501)	Normalized average relative binding affinity(ARB) (HLA A*6802)	Normalized average relative binding affinity(ARB) (HLA B*5801)	Normalized average relative binding affinity(ARB) (HLA B*5802)	Normalized average relative binding affinity(ARB) (HLA A*3201)	Normalized average relative binding affinity(ARB) (HLA B*5401)	Normalized average relative binding affinity(ARB) (HLA B*5101)	Normalized average relative binding affinity(ARB) (H-2 D^d)	Normalized average relative binding affinity(ARB) (HLA B*3501)	Normalized average relative binding affinity(ARB) (HLA B*1503)	Normalized average relative binding affinity(ARB) (HLA B*0801)	Normalized average relative binding affinity(ARB) (HLA B*5301)	Normalized average relative binding affinity(ARB) (H-2 K^k)	Normalized average relative binding affinity(ARB) (H-2 K^d)
XXXXFXXXX [3064.0085]	0.38	0.044	0.52	0.87	0.43	0.089	1.0	1.0	0.29	0.16	0.63	0.78	0.21	1.0	0.19	0.13
XXXXXXXMX [3064.0151]	0.14	0.17	0.061	0.16	0.18	0.32	0.52	0.045	0.32	0.47	0.28	0.14	0.24	0.33	0.49	0.43
XXXYXXXXX [3064.0080]	0.42	0.63	0.41	0.44	0.27	0.49	0.71	0.26	0.88	1.0	0.085	0.55	0.59	0.29	0.24	0.14
XXXXXLXXX [3064.0110]	0.28	0.64	0.12	0.16	0.49	0.31	0.33	0.21	0.55	0.54	0.29	0.37	0.061	0.18	0.25	0.34
XXXXXXMXX [3064.0131]	0.32	0.24	0.54	0.51	0.30	0.35	0.10	0.065	0.68	0.024	0.13	0.18	0.62	0.15	0.064	0.080
XXXXXXXKX [3064.0149]	0.12	0.076	0.24	0.12	0.14	0.15	0.24	0.099	0.20	0.24	0.36	0.085	0.14	0.78	0.13	0.23
XXXXXXIXX [3064.0128]	0.16	0.33	0.40	0.55	0.65	0.058	0.094	0.15	0.59	0.048	0.48	0.29	0.030	0.10	0.037	0.045
XXXTXXXXX [3064.0077]	0.44	0.58	0.39	0.20	0.27	0.74	0.31	0.61	0.77	0.66	0.54	0.41	0.52	0.25	0.19	0.21
